Experimental data reported in the OligoGym collection.
Where “and” joins values, the source holds several entries; their conditions need not be identical. Equal values may be shown once. After the bases stand the sugars from the 5' end (letter, count) and the backbone: PS all phosphorothioate, else s phosphorothioate and o phosphodiester by linkage. Methylation of C is not given here. e = 2'-O-(2-methoxyethyl) (MOE); k = constrained ethyl (cEt); d = 2'-deoxy (DNA)

Biological target: IRF4
Details: ASO

Sequence: CATCCAAGAGTAGCGC (sugars k3 d10 k3, PS)
- target mRNA inhibition (SK-MEL-28, 4 µM): 73% and 63%

Sequence: CATCGAACTCCTGAGT (sugars k3 d10 k3, PS)
- target mRNA inhibition (SK-MEL-28, 4 µM): 31%

Sequence: CATGGCAGTGGAGCTC (sugars k3 d10 k3, PS)
- target mRNA inhibition (SK-MEL-28, 4 µM): 87% and 82%

Sequence: CATTACGAGAGGGTCT (sugars k3 d10 k3, PS)
- target mRNA inhibition (SK-MEL-28, 4 µM): 44%

Sequence: CATTATCTACCTCAGT (sugars k3 d10 k3, PS)
- target mRNA inhibition (SK-MEL-28, 4 µM): 35%

Sequence: CATTCGAGGTGATTCT (sugars k3 d10 k3, PS)
- target mRNA inhibition (MM.1R, 1 µM): 11%

Sequence: CATTCTAACAGATAAC (sugars k3 d10 k3, PS)
- target mRNA inhibition (SK-MEL-28, 4 µM): -2%

Sequence: CATTGCTAGATTCTCC (sugars k3 d10 k3, PS)
- target mRNA inhibition (MM.1R, 1 µM): 18% and 30%

Sequence: CATTGGTACGGGATTT (sugars k3 d10 k3, PS)
- target mRNA inhibition (SK-MEL-28, 4 µM): 16%

Sequence: CATTTTATCATCCGAA (sugars k3 d10 k3, PS)
- target mRNA inhibition (SK-MEL-28, 4 µM): 55%

Sequence: CCACAATCAGCAAGTC (sugars k3 d10 k3, PS)
- target mRNA inhibition (MM.1R, 1 µM): 0%

Sequence: CCACAGTTGAACCCAT (sugars k3 d10 k3, PS)
- target mRNA inhibition (SK-MEL-28, 4 µM): 36%

Sequence: CCACATAACTCAGGCA (sugars k3 d10 k3, PS)
- target mRNA inhibition (SK-MEL-28, 4 µM): 70%

Sequence: CCACATGTCCCGTGGG (sugars k3 d10 k3, PS)
- target mRNA inhibition (MM.1R, 1 µM): -28%

Sequence: CCACCCTCCGTCTCAC (sugars k3 d10 k3, PS)
- target mRNA inhibition (SK-MEL-28, 4 µM): 33%

Sequence: CCACCTCCATTCTAAC (sugars k3 d10 k3, PS)
- target mRNA inhibition (SK-MEL-28, 4 µM): -15%

Sequence: CCACGAAGATTCAAAA (sugars k3 d10 k3, PS)
- target mRNA inhibition (MM.1R, 1 µM): -7%

Sequence: CCACGAGGCACCGCAC (sugars k3 d10 k3, PS)
- target mRNA inhibition (SK-MEL-28, 4 µM): -19%

Sequence: CCACTATTCGAGAGAA (sugars k3 d10 k3, PS)
- target mRNA inhibition (SK-MEL-28, 4 µM): 57%

Sequence: CCAGAGCACACAGACG (sugars k3 d10 k3, PS)
- target mRNA inhibition (SK-MEL-28, 4 µM): 36%

Sequence: CCAGAGCAGTAAACGC (sugars k3 d10 k3, PS)
- target mRNA inhibition (MM.1R, 1 µM): 11%

Sequence: CCAGAGGACCACGCCC (sugars k3 d10 k3, PS)
- target mRNA inhibition (SK-MEL-28, 4 µM): 28%

Sequence: CCAGTACAGTCCACTC (sugars k3 d10 k3, PS)
- target mRNA inhibition (MM.1R, 1 µM): -6%

Sequence: CCATTACTTAGACATT (sugars k3 d10 k3, PS)
- target mRNA inhibition (SK-MEL-28, 4 µM): 64%

Sequence: CCATTAGAAAAGCAGG (sugars k3 d10 k3, PS)
- target mRNA inhibition (SK-MEL-28, 4 µM): 80% and 78%

Sequence: CCATTGGAGGAGGGTT (sugars k3 d10 k3, PS)
- target mRNA inhibition (SK-MEL-28, 4 µM): 32%

Sequence: CCCACATAACTCAGGC (sugars k3 d10 k3, PS)
- target mRNA inhibition (MM.1R, 1 µM): -16%

Sequence: CCCAGTCTACTGCTGT (sugars k3 d10 k3, PS)
- target mRNA inhibition (SK-MEL-28, 4 µM): 66%

Sequence: CCCATCTGTCTCAGTT (sugars k3 d10 k3, PS)
- target mRNA inhibition (SK-MEL-28, 4 µM): 66%

Sequence: CCCCAAAGAGAGTGGG (sugars k3 d10 k3, PS)
- target mRNA inhibition (SK-MEL-28, 4 µM): -11%

Sequence: CCCCAAGGCTACAGGC (sugars k3 d10 k3, PS)
- target mRNA inhibition (SK-MEL-28, 4 µM): 25%

Sequence: CCCGAATAGGACCCCT (sugars k3 d10 k3, PS)
- target mRNA inhibition (SK-MEL-28, 4 µM): 40%

Sequence: CCCGAGGCCGGAGACC (sugars k3 d10 k3, PS)
- target mRNA inhibition (SK-MEL-28, 4 µM): 6%

Sequence: CCCTTCAGCCACGAGG (sugars k3 d10 k3, PS)
- target mRNA inhibition (SK-MEL-28, 4 µM): 8%

Sequence: CCCTTCCCCGCGACTC (sugars k3 d10 k3, PS)
- target mRNA inhibition (SK-MEL-28, 4 µM): 19%

Sequence: CCGAAAAGACTGGAGT (sugars k3 d10 k3, PS)
- target mRNA inhibition (SK-MEL-28, 4 µM): 57%

Sequence: CCGAACTCTCCGCCTC (sugars k3 d10 k3, PS)
- target mRNA inhibition (SK-MEL-28, 4 µM): 36%

Sequence: CCGCAATTCTCCTCAA (sugars k3 d10 k3, PS)
- target mRNA inhibition (SK-MEL-28, 4 µM): 20%

Sequence: CCGCAGCATCGAACTC (sugars k3 d10 k3, PS)
- target mRNA inhibition (SK-MEL-28, 4 µM): 42%

Sequence: CCGGAGACCTTGAAGA (sugars k3 d10 k3, PS)
- target mRNA inhibition (SK-MEL-28, 4 µM): 9%

Sequence: CCGGAGGAAGTCCCCT (sugars k3 d10 k3, PS)
- target mRNA inhibition (MM.1R, 1 µM): 0%

Sequence: CCGGGTGTGGCTGATC (sugars k3 d10 k3, PS)
- target mRNA inhibition (SK-MEL-28, 4 µM): 16%

Sequence: CCGTAGTCAGCTCCAT (sugars k3 d10 k3, PS)
- target mRNA inhibition (SK-MEL-28, 4 µM): 73%

Sequence: CCGTGAAACAGCAGTT (sugars k3 d10 k3, PS)
- target mRNA inhibition (SK-MEL-28, 4 µM): 56%

Sequence: CCTAAATCACCCTGGT (sugars k3 d10 k3, PS)
- target mRNA inhibition (SK-MEL-28, 4 µM): 27%

Sequence: CCTACATACATTAATA (sugars k3 d10 k3, PS)
- target mRNA inhibition (SK-MEL-28, 4 µM): -7%

Sequence: CCTAGATAACATGAGA (sugars k3 d10 k3, PS)
- target mRNA inhibition (SK-MEL-28, 4 µM): 26%

Sequence: CCTAGGACTAAGGACA (sugars k3 d10 k3, PS)
- target mRNA inhibition (MM.1R, 1 µM): -3%

Sequence: CCTCAAAGCTGTGAAA (sugars k3 d10 k3, PS)
- target mRNA inhibition (SK-MEL-28, 4 µM): 20%

Sequence: CCTCAACCGCTGAACT (sugars k3 d10 k3, PS)
- target mRNA inhibition (SK-MEL-28, 4 µM): 30%

Sequence: CCTCAGACTGTGCTGC (sugars k3 d10 k3, PS)
- target mRNA inhibition (SK-MEL-28, 4 µM): 30%

Sequence: CCTCAGGGAATCCCTT (sugars k3 d10 k3, PS)
- target mRNA inhibition (SK-MEL-28, 4 µM): 30%

Sequence: CCTCAGTTTGTGAAGC (sugars kdddddddddkekeke, PS)
- target mRNA inhibition (MM.1R, 1 µM): 11%

Sequence: CCTCAGTTTGTGAAGC (sugars kkdddddddddkekek, PS)
- target mRNA inhibition (MM.1R, 1 µM): 15%

Sequence: CCTCCTTTAGTGTCGC (sugars k3 d10 k3, PS)
- target mRNA inhibition (SK-MEL-28, 4 µM): 65%

Sequence: CCTCGCTCAAAGACCA (sugars k3 d10 k3, PS)
- target mRNA inhibition (SK-MEL-28, 4 µM): 50%

Sequence: CCTGAACATGACTGGG (sugars k3 d10 k3, PS)
- target mRNA inhibition (SK-MEL-28, 4 µM): 38%
